Experimental data published in patent US20150164895A1, “DETERMINING SENSITIVITY OF CELLS TO B-RAF INHIBITOR TREATMENT BY DETECTING KRAS MUTATION AND RTK EXPRESSION LEVELS” (GENENTECH, INC., priority 2009, published 2015).

What was measured:
[1] = tested on: Venus-C-RAF / CFP-K-RAS in HEK293T cells; assay: C-RAF plasma membrane translocation, live cell confocal imaging; format: cell-based; parameters: dose or concentration left out as unconfirmed
Source text: Aliquots of the membrane and cytosolic fractions were immunoblotted with the indicated antibodies. (B) HEK293T cells were transiently transfected with Venus-C-RAF (green), CFP-K-RAS (red) and mCherry-H2B (blue).

[2] = tested on: pERK in BRAF V600E cells expressing EGFR; assay: pERK MSD assay, basal and EGF-stimulated; format: cell-based; conditions: serum starved, -EGF or +EGF
Procedure: (A) Table of genotype and EGFR levels among lines tested. (B) Measurement of basal and stimulated pERK levels: cells were treated with […] compound in serum free media for 1 hour. For stimulation 20 ng/ml EGF was added for 5 min before cells were lysed. Lysates were transferred to an MSD plate where phospho- and total ERK levels were measured. (C) pERK IC50 data are plotted for the two Raf inhibitors (CHR-265, 1-methyl-5-[[2-[5-(trifluoromethyl)-1H-imidazol-2-yl]-4-pyridinyl]oxy]-N-[4-(trifluoromethyl)phenyl]-1H-Benzimidazol-2-amine and GDC-0879) under basal and EGF-stimulated conditions.
FIG. 29 summarizes certain RAF inhibitor (GDC-0879, PLX-4720 and “Raf inh a” which is 2,6-difluoro-N-(3-methoxy-1H-pyrazolo[3,4-b]pyridin-5-yl)-3-(propylsulfonamido)benzamide) potencies for blocking cellular pERK induction in response to EGF stimulation.

B-RAFV600E cells = assay: Cellular proliferation of B-RAFV600E cells in presence of EGF, single agents and combinations; format: cell-based; conditions: in combination with RAF inhibitor; 20 ng/ml EGF in the media
Procedure: (A) Cells were treated with […] compound in serum free media for 1 hour. For stimulation 20 ng/ml EGF was added for 5 min before cells were lysed. Lysates were transferred to an MSD plate where phospho- and total MEK levels were measured. […] Cells were dosed with indicated inhibitors, either alone or in combination in the presence of 20 ng/ml EGF in the media.

[3] = tested on: phospho-ERK (pERK) levels in HT-29 tumors; assay: phospho-ERK western blot of HT-29 tumor lysates; format: in vivo; conditions: RAF inhibitor a and Tarceva co-administered in mice
Procedure: (§1) In FIG. 34A, RAF inh a was given at 100 mg/kg with increasing doses of Tarceva. In FIG. 34B, Tarceva was given to all animals with increasing concentrations of RAF inh a. […] In FIG. 34C, lysates from tumors treated with the indicated doses of inhibitors in FIGS. 34A and B were analyzed for phospho-ERK (pERK) levels by western blot.

[4] = tested on: HT-29 BRAF V600E human colorectal carcinoma xenografts; assay: HT-29 xenograft combination efficacy; format: in vivo, NCR nude (Taconic) mice; conditions: RAF inh a and Tarceva given in combination
Procedure: as §1

CX-1 cells = assay: Combination study of RAF inhibitor and Tarceva in colon tumor lines; format: cell-based; conditions: Tarceva administered together with RAF inhibitor; CX-1 (high EGFR)
Source text: FIGS. 32A-C depict combination studies of RAF inhibitor and EGFR inhibitor (Tarceva) in colon tumor lines with different levels of EGFR expression.
In FIG. 32C, the effects of combination treatment of CX-1 cells with either RAF inhibitor alone, Tarceva alone or combination of RAF inhibitor and Tarceva are shown. Neither RAF inhibitor alone nor Tarceva alone suppress proliferation as effectively as the combination. Both inhibitors show good synergy when administered together to CX-1 cells.

Compound: Cc1ccc(NC(=O)c2cccc(C(C)(C)C#N)c2)cc1Nc1ccc2ncn(C)c(=O)c2c1 [AZ-628, 3-(2-cyanopropan-2-yl)-N-(4-methyl-3-(3-methyl-4-oxo-3,4-dihydroquinazolin-6-ylamino)phenyl)benzamide]
- Venus-tagged C-RAF membrane translocation [1]: co-localizes with CFP-KRAS on the plasma membrane

Compound: CCCS(=O)(=O)Nc1ccc(F)c(C(=O)c2c[nH]c3ncc(Cl)cc23)c1F [PLX4720, N-[3-[(5-chloro-1H-pyrrolo[2,3-b]pyridin-3-yl)carbonyl]-2,4-difluorophenyl]-1-propanesulfonamide]
- blocking wildtype RAF signaling / selectivity (pERK induction in response to EGF) [2]: BRAF V600E selective

Compound: O=C(NOC[C@H](O)CO)c1ccc(F)c(F)c1Nc1ccc(I)cc1F [PD-0325901]
- resistance of cellular proliferation to RAF inhibitors under EGF (B-RAFV600E cells): overcomes that resistance

Compound: C#Cc1cccc(Nc2ncnc3cc(OCCOC)c(OCCOC)cc23)c1 [Tarceva, erlotinib]
- phospho-ERK levels in the tumors [3]: synergized in decreasing phospho-ERK levels
- antitumor efficacy in combination [4]: Increased efficacy
- resistance of cellular proliferation to RAF inhibitors under EGF (B-RAFV600E cells): overcomes that resistance
- suppression of proliferation, combination effect (CX-1 cells): good synergy

Compound: CCCS(=O)(=O)Nc1ccc(F)c(C(=O)Nc2cnc3[nH]nc(OC)c3c2)c1F [Raf inh a, 2,6-difluoro-N-(3-methoxy-1H-pyrazolo[3,4-b]pyridin-5-yl)-3-(propylsulfonamido)benzamide]
- phospho-ERK levels in the tumors [3]: synergized in decreasing phospho-ERK levels
- antitumor efficacy in combination [4]: Increased efficacy
- blocking wildtype RAF signaling / selectivity (pERK induction in response to EGF) [2]: BRAF V600E selective
